# Legend:
# Parameters in all cases: scale not given here
# ZEAMX Corn, Field [1] = assay: Postemergence herbicidal evaluation, ZEAMX; format: in vivo, Zea mays, L. (Sammel-Bezeichnung); details: postemergence spray, rated about two-three weeks after treatment
# Procedure: (§1) In this evaluation, seedling plants are grown in jiffy flats for about two weeks. The test compounds are dispersed in 80/20 acetone/water mixtures containing 1.0% SUN-IT® II, a methylated seed oil, in sufficient quantities to provide the equivalent of about 0.006 kg to 0.400 kg per hectare of active compound when applied to the plants through a spray nozzle operating at 40 psi for a predetermined time. After spraying, the plants are placed on greenhouse benches and are cared for in accordance with conventional greenhouse procedures. Approximately two - three weeks after treatment, the seedling plants are examined and rated according to the rating system set forth below. Where more than one test is involved for a given compound, the data are averaged.
# ECHOG Barnyardgrass [2] = assay: Preemergence herbicidal evaluation, ECHOG; format: in vivo, Echinochloa crus-galli, (L.) Beau; details: preemergence
# Excerpt: (§2) The preemergence herbicidal activity of the test compounds of the present invention is exemplified by the following tests in which the seeds of a variety of monocotyledonous and dicotyledonous plants are separately mixed with potting soil and planted on top of approximately one inch of soil in separate pint cups. […] The treated cups are then placed on greenhouse benches, watered and cared for in accordance with conventional greenhouse procedures. From four to five weeks after treatment, the tests are terminated and each cup is examined and rated according to the rating system provided in Example 46.
# CASOB Sicklepod [3] = assay: Postemergence herbicidal evaluation, CASOB; format: in vivo, Cassia obtusifolia, L.; details: postemergence spray, rated about two-three weeks after treatment
# Procedure: as §1
# ORYSAT Rice, Tebonnet [4] = assay: Preemergence herbicidal evaluation, ORYSAT; format: in vivo, Oryza sativa, (L.); details: preemergence
# Excerpt: as §2
# ORYSAT Rice, Tebonnet [5] = assay: Postemergence herbicidal evaluation, ORYSAT; format: in vivo, Oryza sativa, (L.); details: postemergence spray, rated about two-three weeks after treatment
# Procedure: as §1
# [6] = test system: IPOHE Morningglory, Ivyleaf; assay: Postemergence herbicidal evaluation, IPOHE; format: in vivo, Ipomoea hederacea, (L.) Jacq.; details: postemergence spray, rated about two-three weeks after treatment
# Procedure: as §1
# GALAP Galium [7] = assay: Preemergence herbicidal evaluation, GALAP; format: in vivo, Galium aparine; details: preemergence
# Excerpt: as §2
# GLXMAW Soybean, Williams [8] = assay: Postemergence herbicidal evaluation, GLXMAW; format: in vivo, Glycine max, (L.) Merr. cv Williams; details: postemergence spray, rated about two-three weeks after treatment
# Procedure: as §1
# AMBEL Ragweed, Common [9] = assay: Postemergence herbicidal evaluation, AMBEL; format: in vivo, Ambrosia artemisifolia, L.; details: postemergence spray, rated about two-three weeks after treatment
# Procedure: as §1
# AMBEL Ragweed, Common [10] = assay: Preemergence herbicidal evaluation, AMBEL; format: in vivo, Ambrosia artemisifolia, L.; details: preemergence
# Excerpt: as §2
# [11] = test system: IPOHE Morningglory, Ivyleaf; assay: Preemergence herbicidal evaluation, IPOHE; format: in vivo, Ipomoea hederacea, (L.) Jacq.; details: preemergence
# Excerpt: as §2
# ECHOG Barnyardgrass [12] = assay: Postemergence herbicidal evaluation, ECHOG; format: in vivo, Echinochloa crus-galli, (L.) Beau; details: postemergence spray, rated about two-three weeks after treatment
# Procedure: as §1
# CASOB Sicklepod [13] = assay: Preemergence herbicidal evaluation, CASOB; format: in vivo, Cassia obtusifolia, L.; details: preemergence
# Excerpt: as §2
# [14] = test system: CHEAL Lambsquarters, Common; assay: Preemergence herbicidal evaluation, CHEAL; format: in vivo, Chenopodium album, L.; details: preemergence
# Excerpt: as §2
# ZEAMX Corn, Field [15] = assay: Preemergence herbicidal evaluation, ZEAMX; format: in vivo, Zea mays, L. (Sammel-Bezeichnung); details: preemergence
# Excerpt: as §2
# [16] = test system: CHEAL Lambsquarters, Common; assay: Postemergence herbicidal evaluation, CHEAL; format: in vivo, Chenopodium album, L.; details: postemergence spray, rated about two-three weeks after treatment
# Procedure: as §1
# ABUTH Velvetleaf [17] = assay: Preemergence herbicidal evaluation, ABUTH; format: in vivo, Abutilon theophrasti, Medic.; details: preemergence
# Excerpt: as §2
# SETVI Foxtail, Green [18] = assay: Preemergence herbicidal evaluation, SETVI; format: in vivo, Setaria viridis, (L.) Beau; details: preemergence
# Excerpt: as §2
# [19] = test system: TRZAWR Wheat, Winter, cv Riband; assay: Preemergence herbicidal evaluation, TRZAWR; format: in vivo, Triticum aestivum; details: preemergence
# Excerpt: as §2
# GLXMAW Soybean, Williams [20] = assay: Preemergence herbicidal evaluation, GLXMAW; format: in vivo, Glycine max, (L.) Merr. cv Williams; details: preemergence
# Excerpt: as §2
# SETVI Foxtail, Green [21] = assay: Postemergence herbicidal evaluation, SETVI; format: in vivo, Setaria viridis, (L.) Beau; details: postemergence spray, rated about two-three weeks after treatment
# Procedure: as §1
# [22] = test system: TRZAWR Wheat, Winter, cv Riband; assay: Postemergence herbicidal evaluation, TRZAWR; format: in vivo, Triticum aestivum; details: postemergence spray, rated about two-three weeks after treatment
# Procedure: as §1
# ABUTH Velvetleaf [23] = assay: Postemergence herbicidal evaluation, ABUTH; format: in vivo, Abutilon theophrasti, Medic.; details: postemergence spray, rated about two-three weeks after treatment
# Procedure: as §1
# GALAP Galium [24] = assay: Postemergence herbicidal evaluation, GALAP; format: in vivo, Galium aparine; details: postemergence spray, rated about two-three weeks after treatment
# Procedure: as §1
smiles,measurement,setting,value
"COc1ccccc1-n1nnc2cc(F)c(-n3c(=O)cc(C(F)(F)F)n(C)c3=O)cc21 [Example 16, 3-[5-Fluoro-1-(2-Methoxyphenyl)-1H-1,2,3-Benzotriazol-6-yl]-1-Methyl-6-(Trifluoromethyl)-2,4(1H,3H)-Pyrmidinedione]",Postemergence herbicidal rating ZEAMX,"ZEAMX Corn, Field [1]; 0.008 kg/ha",5.5
same,Postemergence herbicidal rating ZEAMX,"ZEAMX Corn, Field [1]; 0.016 kg/ha",6.0
same,Postemergence herbicidal rating ZEAMX,"ZEAMX Corn, Field [1]; 0.032 kg/ha",6.0
same,Postemergence herbicidal rating ZEAMX,"ZEAMX Corn, Field [1]; 0.062 kg/ha",6.0
same,ECHCG herbicidal rating,ECHOG Barnyardgrass [2]; rate 0.016 kg/ha,9.0
same,ECHCG herbicidal rating,ECHOG Barnyardgrass [2]; rate 0.032 kg/ha,9.0
same,ECHCG herbicidal rating,ECHOG Barnyardgrass [2]; rate 0.062 kg/ha,9.0
same,ECHCG herbicidal rating,ECHOG Barnyardgrass [2]; rate 0.125 kg/ha,9.0
same,Postemergence herbicidal rating CASOB,CASOB Sicklepod [3]; 0.008 kg/ha,6.0
same,Postemergence herbicidal rating CASOB,CASOB Sicklepod [3]; 0.016 kg/ha,6.0
same,Postemergence herbicidal rating CASOB,CASOB Sicklepod [3]; 0.032 kg/ha,6.0
same,Postemergence herbicidal rating CASOB,CASOB Sicklepod [3]; 0.062 kg/ha,9.0
same,ORYSAT herbicidal rating,"ORYSAT Rice, Tebonnet [4]; rate 0.016 kg/ha",7.0
same,ORYSAT herbicidal rating,"ORYSAT Rice, Tebonnet [4]; rate 0.032 kg/ha",7.0
same,ORYSAT herbicidal rating,"ORYSAT Rice, Tebonnet [4]; rate 0.062 kg/ha",9.0
same,ORYSAT herbicidal rating,"ORYSAT Rice, Tebonnet [4]; rate 0.125 kg/ha",9.0
same,Postemergence herbicidal rating ORYSAT,"ORYSAT Rice, Tebonnet [5]; 0.008 kg/ha",2.5
same,Postemergence herbicidal rating ORYSAT,"ORYSAT Rice, Tebonnet [5]; 0.016 kg/ha",3.0
same,Postemergence herbicidal rating ORYSAT,"ORYSAT Rice, Tebonnet [5]; 0.032 kg/ha",3.0
same,Postemergence herbicidal rating ORYSAT,"ORYSAT Rice, Tebonnet [5]; 0.062 kg/ha",4.0
same,Postemergence herbicidal rating IPOHE,[6]; 0.008 kg/ha,5.0
same,Postemergence herbicidal rating IPOHE,[6]; 0.016 kg/ha,5.0
same,Postemergence herbicidal rating IPOHE,[6]; 0.032 kg/ha,9.0
same,Postemergence herbicidal rating IPOHE,[6]; 0.062 kg/ha,9.0
same,GALAP herbicidal rating,GALAP Galium [7]; rate 0.016 kg/ha,0.0
same,GALAP herbicidal rating,GALAP Galium [7]; rate 0.032 kg/ha,0.0
same,GALAP herbicidal rating,GALAP Galium [7]; rate 0.062 kg/ha,9.0
same,GALAP herbicidal rating,GALAP Galium [7]; rate 0.125 kg/ha,9.0
same,Postemergence herbicidal rating GLXMAW,"GLXMAW Soybean, Williams [8]; 0.008 kg/ha",5.0
same,Postemergence herbicidal rating GLXMAW,"GLXMAW Soybean, Williams [8]; 0.016 kg/ha",5.0
same,Postemergence herbicidal rating GLXMAW,"GLXMAW Soybean, Williams [8]; 0.032 kg/ha",6.0
same,Postemergence herbicidal rating GLXMAW,"GLXMAW Soybean, Williams [8]; 0.062 kg/ha",7.5
same,Postemergence herbicidal rating AMBEL,"AMBEL Ragweed, Common [9]; 0.008 kg/ha",2.0
same,Postemergence herbicidal rating AMBEL,"AMBEL Ragweed, Common [9]; 0.016 kg/ha",9.0
same,Postemergence herbicidal rating AMBEL,"AMBEL Ragweed, Common [9]; 0.032 kg/ha",9.0
same,Postemergence herbicidal rating AMBEL,"AMBEL Ragweed, Common [9]; 0.062 kg/ha",9.0
same,AMBEL herbicidal rating,"AMBEL Ragweed, Common [10]; rate 0.016 kg/ha",6.0
same,AMBEL herbicidal rating,"AMBEL Ragweed, Common [10]; rate 0.032 kg/ha",9.0
same,AMBEL herbicidal rating,"AMBEL Ragweed, Common [10]; rate 0.062 kg/ha",9.0
same,AMBEL herbicidal rating,"AMBEL Ragweed, Common [10]; rate 0.125 kg/ha",9.0
same,IPOHE herbicidal rating,[11]; rate 0.016 kg/ha,3.0
same,IPOHE herbicidal rating,[11]; rate 0.032 kg/ha,3.0
same,IPOHE herbicidal rating,[11]; rate 0.062 kg/ha,9.0
same,IPOHE herbicidal rating,[11]; rate 0.125 kg/ha,9.0
same,Postemergence herbicidal rating ECHCG,ECHOG Barnyardgrass [12]; 0.008 kg/ha,2.0
same,Postemergence herbicidal rating ECHCG,ECHOG Barnyardgrass [12]; 0.016 kg/ha,2.0
same,Postemergence herbicidal rating ECHCG,ECHOG Barnyardgrass [12]; 0.032 kg/ha,3.0
same,Postemergence herbicidal rating ECHCG,ECHOG Barnyardgrass [12]; 0.062 kg/ha,5.0
same,CASOB herbicidal rating,CASOB Sicklepod [13]; rate 0.016 kg/ha,0.0
same,CASOB herbicidal rating,CASOB Sicklepod [13]; rate 0.032 kg/ha,0.0
same,CASOB herbicidal rating,CASOB Sicklepod [13]; rate 0.062 kg/ha,9.0
same,CASOB herbicidal rating,CASOB Sicklepod [13]; rate 0.125 kg/ha,9.0
same,CHEAL herbicidal rating,[14]; rate 0.016 kg/ha,9.0
same,CHEAL herbicidal rating,[14]; rate 0.032 kg/ha,9.0
same,CHEAL herbicidal rating,[14]; rate 0.062 kg/ha,9.0
same,CHEAL herbicidal rating,[14]; rate 0.125 kg/ha,9.0
same,ZEAMX herbicidal rating,"ZEAMX Corn, Field [15]; rate 0.016 kg/ha",8.0
same,ZEAMX herbicidal rating,"ZEAMX Corn, Field [15]; rate 0.032 kg/ha",7.0
same,ZEAMX herbicidal rating,"ZEAMX Corn, Field [15]; rate 0.062 kg/ha",8.0
same,ZEAMX herbicidal rating,"ZEAMX Corn, Field [15]; rate 0.125 kg/ha",8.0
same,Postemergence herbicidal rating CHEAL,[16]; 0.008 kg/ha,5.0
same,Postemergence herbicidal rating CHEAL,[16]; 0.016 kg/ha,5.0
same,Postemergence herbicidal rating CHEAL,[16]; 0.032 kg/ha,6.0
same,Postemergence herbicidal rating CHEAL,[16]; 0.062 kg/ha,8.0
same,ABUTH herbicidal rating,ABUTH Velvetleaf [17]; rate 0.016 kg/ha,9.0
same,ABUTH herbicidal rating,ABUTH Velvetleaf [17]; rate 0.032 kg/ha,9.0
same,ABUTH herbicidal rating,ABUTH Velvetleaf [17]; rate 0.062 kg/ha,9.0
same,ABUTH herbicidal rating,ABUTH Velvetleaf [17]; rate 0.125 kg/ha,9.0
same,SETVI herbicidal rating,"SETVI Foxtail, Green [18]; rate 0.016 kg/ha",9.0
same,SETVI herbicidal rating,"SETVI Foxtail, Green [18]; rate 0.032 kg/ha",9.0
same,SETVI herbicidal rating,"SETVI Foxtail, Green [18]; rate 0.062 kg/ha",9.0
same,SETVI herbicidal rating,"SETVI Foxtail, Green [18]; rate 0.125 kg/ha",9.0
same,TRZAWR herbicidal rating,[19]; rate 0.016 kg/ha,6.0
same,TRZAWR herbicidal rating,[19]; rate 0.032 kg/ha,8.0
same,TRZAWR herbicidal rating,[19]; rate 0.062 kg/ha,8.0
same,TRZAWR herbicidal rating,[19]; rate 0.125 kg/ha,9.0
same,GLXMAW herbicidal rating,"GLXMAW Soybean, Williams [20]; rate 0.016 kg/ha",9.0
same,GLXMAW herbicidal rating,"GLXMAW Soybean, Williams [20]; rate 0.032 kg/ha",9.0
same,GLXMAW herbicidal rating,"GLXMAW Soybean, Williams [20]; rate 0.062 kg/ha",9.0
same,GLXMAW herbicidal rating,"GLXMAW Soybean, Williams [20]; rate 0.125 kg/ha",9.0
same,Postemergence herbicidal rating SETVI,"SETVI Foxtail, Green [21]; 0.008 kg/ha",2.0
same,Postemergence herbicidal rating SETVI,"SETVI Foxtail, Green [21]; 0.016 kg/ha",5.0
same,Postemergence herbicidal rating SETVI,"SETVI Foxtail, Green [21]; 0.032 kg/ha",7.0
same,Postemergence herbicidal rating SETVI,"SETVI Foxtail, Green [21]; 0.062 kg/ha",9.0
same,Postemergence herbicidal rating TRZAWR,[22]; 0.008 kg/ha,2.5
same,Postemergence herbicidal rating TRZAWR,[22]; 0.016 kg/ha,3.0
same,Postemergence herbicidal rating TRZAWR,[22]; 0.032 kg/ha,3.5
same,Postemergence herbicidal rating TRZAWR,[22]; 0.062 kg/ha,5.5
same,Postemergence herbicidal rating ABUTH,ABUTH Velvetleaf [23]; 0.008 kg/ha,9.0
same,Postemergence herbicidal rating ABUTH,ABUTH Velvetleaf [23]; 0.016 kg/ha,9.0
same,Postemergence herbicidal rating ABUTH,ABUTH Velvetleaf [23]; 0.032 kg/ha,9.0
same,Postemergence herbicidal rating ABUTH,ABUTH Velvetleaf [23]; 0.062 kg/ha,9.0
same,Postemergence herbicidal rating GALAP,GALAP Galium [24]; 0.008 kg/ha,0.0
same,Postemergence herbicidal rating GALAP,GALAP Galium [24]; 0.016 kg/ha,3.0
same,Postemergence herbicidal rating GALAP,GALAP Galium [24]; 0.032 kg/ha,3.0
same,Postemergence herbicidal rating GALAP,GALAP Galium [24]; 0.062 kg/ha,4.0

# From patent US20020111274A1, “1-alkyl-3-[1-(substituted phenyl) benzotriazol-6-yl] uracils” (BASF Aktiengesellschaft, priority 2000, published 2002)
